Legend:
[1] = system: Picrotoxin (PIC) induced clonic seizure; experiment: animal or person; format: in vivo, ICR mice
[2] = system: ACTH-refractory infantile spasm (behavioral spasms); experiment: animal or person; format: in vivo, Sprague-Dawley rats
6 Hz-induced seizure = experiment: animal or person; format: in vivo, mice; conditions: ip
[3] = system: Lithium-pilocarpine induced status epilepticus; parameters: species or system Sprague-Dawley rats; conditions: in vivo
[4] = system: PTZ (Pentylenetetrazol) induced clonic seizure; experiment: animal or person; format: in vivo, ICR mice; conditions: mouse, in vivo, ip

C[C@H](OC(N)=O)[C@@H](O)c1ccccc1Cl [Compound 1, 1-(2-chlorophenyl)-(S)-1-hydroxypropyl-(S)-2-carbamate]
ED50 ([1]; Mus musculus, ip, read-out: PIC (ip) ED50): 18.2 mg/kg
PIC (ip) Peak Time ([1]; mice): 2 h
ED50 ([2]; Rattus norvegicus, ip, read-out: ACTH-refractory IS (ip) ED50): 19.8 mg/kg
ACTH-refractory IS (ip) Peak Time ([2]; rat, in vivo): 1 h
ED50 (6 Hz-induced seizure; Mus musculus, read-out: 6 Hz ED50, 44 mA): 13.7 mg/kg
6 Hz Peak Time (6 Hz-induced seizure; mouse, in vivo): 0.25 h
Prevention (rat, ip) Peak Time [3]: 2 h
PTZ test (ip) in Mice Peak Time [4]: 2 h
